Measurements: ChEMBL document CHEMBL4814008, “Using porphyrins as albumin-binding molecules to enhance antitumor efficacies and reduce systemic toxicities of antimicrobial peptides” (Eur J Med Chem, 2021)
The source made the active and inactive calls. No cut-off for these calls is given here.

Columns and labels:
[1] = tested on: CWR22R; assay: Cytotoxicity against human 22RV1 cells; type: functional, cell-based
[2] = Drug uptake in human MDA-MB-231 cells by flow cytometric analysis; type: ADME, cell-based
[3] = Time-dependent drug uptake in mouse 4T1 cells measured for 24 hrs by flow cytometric analysis; type: ADME, cell-based; conditions: 4t1, 24 h, TDE = time-dependent effect
[4] = tested on: MDA-MB-231; assay: Induction of apoptosis in human MDA-MB-231 cells assessed as necrotic cells at […] by flow cytometric analysis; type: functional; conditions: dose 2.5 µM
[5] = tested on: 4T1; assay: Antitumor activity against mouse 4T1 cells xenografted in BALB/c mouse assessed as reduction in tumor weight at 2.4 mg/kg, iv dosed every 3 days for 23 days and measured on day 23; type: functional; conditions: 4T1, iv, 552 h, time 23 day
[6] = tested on: 4T1; assay: (§1) Anti-metastatic activity against mouse 4T1 cells xenografted in BALB/c mouse assessed as metastasized area in lungs at 2.4 mg/kg, iv dosed every 3 days for 23 days and measured on day 30 by hematoxylin and eosin staining based analysis (reference value: 44.8%); type: functional; conditions: time 30 day
[7] = Drug localization in nucleus of human MDA-MB-231 cells at 0.5 uM by DAPI staining based confocal laser scanning microscopic method; type: ADME, subcellular; conditions: mda-mb-231, 0.5 µM
[8] = Binding affinity to 1-20% fetal bovine serum protein in PBS assessed as shift in Q-band by UV/Vis spectrophotometric analysis; type: ADME, cell-free, Bos taurus; conditions: cattle
[9] = Binding affinity to 1-20% fetal bovine serum protein in PBS assessed as increase in fluorescence emission by fluorescence spectrophotometric analysis; type: ADME, cell-free, Bos taurus; conditions: cattle
[10] = tested on: Erythrocyte; assay: Induction of hemolysis in RBC (unknown origin) in presence of 10% FBS; type: cell-based
[11] = tested on: 4T1; assay: Phototoxicity against mouse 4T1 cells in presence of illumination by MTT assay relative to control; type: functional
[12] = tested on: MDA-MB-231; assay: Induction of apoptosis in human MDA-MB-231 cells assessed as early apoptotic cells at […] in presence of illumination by flow cytometric analysis; type: functional; conditions: dose 0.25 µM
[13] = Toxicity in ICR mouse assessed as effect on spleen morphology at 100 uM, iv measured after 24 hrs by H and E staining based light microscopic analysis; type: organism-based; conditions: in vivo
[14] = tested on: 4T1; assay: Antitumor activity against mouse 4T1 cells xenografted in BALB/c mouse assessed as reduction in tumor weight at 2.4 mg/kg, iv dosed every 3 days for 23 days and illuminated with 670 nm laser light 30 mins after the first dose and measured on day 23; type: functional; conditions: 4T1, iv, 552 h, time 23 day
[15] = tested on: MDA-MB-231; assay: Cytotoxicity against human MDA-MB-231 cells assessed as reduction in cell viability at 0.5 uM by calcein-AM/PI staining based fluorescence analysis; type: functional
[16] = tested on: Erythrocyte; assay: Induction of hemolysis in RBC (unknown origin) in absence of serum; type: cell-based
[17] = Toxicity in ICR mouse assessed as effect on heart morphology at 100 uM, iv measured after 24 hrs by H and E staining based light microscopic analysis; type: organism-based; conditions: in vivo
[18] = tested on: MDA-MB-231; assay: Induction of apoptosis in human MDA-MB-231 cells assessed as necrotic cells at […] in presence of illumination by flow cytometric analysis; type: functional; conditions: dose 0.25 µM
[19] = molecular target: Albumin (Homo sapiens, UniProt P02768); assay: Binding affinity to human serum albumin assessed as dissociation constant by fluorescence emission spectrophotometric analysis; type: ADME, cell-free
[20] = tested on: 4T1; assay: as §1, with “days and illuminated with 670 nm laser light 30 mins after the first dose and measured on” for “days and measured on”; type: functional; conditions: time 30 day
[21] = Drug uptake in human L02 cells by flow cytometric analysis; type: ADME, cell-based
[22] = Toxicity in ICR mouse assessed as effect on lungs morphology at 100 uM, iv measured after 24 hrs by H and E staining based light microscopic analysis; type: organism-based; conditions: in vivo
[23] = tested on: 4T1; assay: Antitumor activity against mouse 4T1 cells xenografted in BALB/c mouse assessed as inhibition of tumor growth at 2.4 mg/kg, iv dosed every 3 days for 23 days; type: functional, organism-based; conditions: time 23.0 day
[24] = Drug localization in lysosomes of human MDA-MB-231 cells at 0.5 uM by DAPI staining based confocal laser scanning microscopic method; type: ADME, subcellular, Lysosome; conditions: mda-mb-231, 0.5 µM
[25] = tested on: 4T1; assay: Phototoxicity against mouse 4T1 cells in presence of illumination by MTT assay; type: functional, cell-based; conditions: 4T1, light or radiation study
[26] = Drug localization in mitochondria of human MDA-MB-231 cells at 0.5 uM by DAPI staining based confocal laser scanning microscopic method; type: ADME; conditions: mda-mb-231, 0.5 µM
[27] = tested on: MDA-MB-231; assay: Phototoxicity against human MDA-MB-231 cells assessed as reduction in cell viability at 0.5 uM in presence of illumination by calcein-AM/PI staining based fluorescence analysis; type: functional
[28] = tested on: MDA-MB-231; assay: Cytotoxicity against human MDA-MB-231 cells assessed as reduction in cell viability at 5 uM by calcein-AM/PI staining based fluorescence analysis; type: functional
[29] = Drug uptake in tumor of BALB/c mouse xenografted with mouse 4T1 cells at 100 uM, iv measured after 120 hrs by fluorescence molecular tomography; type: ADME, organism-based, Neoplasm; conditions: in vivo
[30] = tested on: MDA-MB-231; assay: Induction of apoptosis in human MDA-MB-231 cells assessed as early apoptotic cells at […] by flow cytometric analysis; type: functional; conditions: dose 2.5 µM
[31] = tested on: 4T1; assay: Cytotoxicity against mouse 4T1 cells by MTT assay; type: functional, cell-based
[32] = Toxicity in ICR mouse assessed as effect on kidney morphology at 100 uM, iv measured after 24 hrs by H and E staining based light microscopic analysis; type: organism-based; conditions: in vivo
[33] = Hepatotoxicity in ICR mouse assessed as hepatocytes with intact nuclei and cytoplasm at 100 uM, iv measured after 24 hrs by H and E staining based light microscopic analysis; type: toxicity, organism-based
[34] = Hepatotoxicity in ICR mouse assessed as hepatocytes with extensive shrinking cytoplasm, destroyed intercellular connections, necrotic cells with smeared nuclei at 100 uM, iv measured after 24 hrs by H and E staining based light microscopic analysis; type: toxicity, organism-based

Sequence of Albumin (P02768 whole entry): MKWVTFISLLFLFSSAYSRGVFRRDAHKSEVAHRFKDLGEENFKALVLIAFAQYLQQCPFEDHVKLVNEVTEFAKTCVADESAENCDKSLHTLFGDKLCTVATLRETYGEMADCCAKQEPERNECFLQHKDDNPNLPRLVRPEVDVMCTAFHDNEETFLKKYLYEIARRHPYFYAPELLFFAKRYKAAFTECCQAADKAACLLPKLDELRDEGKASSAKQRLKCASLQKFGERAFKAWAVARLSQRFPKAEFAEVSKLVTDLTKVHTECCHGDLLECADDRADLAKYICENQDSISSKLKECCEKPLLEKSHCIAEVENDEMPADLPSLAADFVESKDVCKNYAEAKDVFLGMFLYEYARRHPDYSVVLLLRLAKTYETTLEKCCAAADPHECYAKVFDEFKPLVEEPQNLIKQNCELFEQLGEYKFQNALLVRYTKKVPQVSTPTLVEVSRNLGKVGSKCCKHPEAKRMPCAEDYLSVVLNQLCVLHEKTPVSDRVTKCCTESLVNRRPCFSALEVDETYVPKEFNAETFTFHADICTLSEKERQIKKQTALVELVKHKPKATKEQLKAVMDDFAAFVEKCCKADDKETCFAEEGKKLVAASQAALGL

## CC(C)C[C@H](NC(=O)[C@H](CC(C)C)NC(=O)[C@@H](CCCCN)NC(=O)[C@H](CC(C)C)NC(=O)[C@H](CC(C)C)NC(=O)[C@H](CCCCN)NC(=O)[C@@H](CCCCN)NC(=O)[C@@H](CC(C)C)NC(=O)[C@H](CC(C)C)NC(=O)[C@@H](CCCCN)NC(=O)[C@H](CCCCN)NC(=O)[C@H](CC(C)C)NC(=O)[C@@H](CC(C)C)NC(=O)[C@H](CCCCN)NC(=O)[C@H](CC(C)C)NC(=O)CNC(=O)CN)C(N)=O
[1]
  IC50: 6 µM

## C=Cc1c(C)c2cc3nc(c4c5[nH]c(cc6nc(cc1[nH]2)C(C)=C6CC)c(C)c5C(=O)C4)[C@@H](CCC(=O)NCC(=O)NCC(=O)N[C@@H](CC(C)C)C(=O)N[C@@H](CCCCN)C(=O)N[C@H](CC(C)C)C(=O)N[C@@H](CC(C)C)C(=O)N[C@@H](CCCCN)C(=O)N[C@H](CCCCN)C(=O)N[C@@H](CC(C)C)C(=O)N[C@H](CC(C)C)C(=O)N[C@H](CCCCN)C(=O)N[C@@H](CCCCN)C(=O)N[C@@H](CC(C)C)C(=O)N[C@@H](CC(C)C)C(=O)N[C@H](CCCCN)C(=O)N[C@@H](CC(C)C)C(=O)N[C@@H](CC(C)C)C(N)=O)[C@@H]3C
[2]
  Drug uptake: Active
[3]
  Drug uptake: Tde
[4]
  Activity: 37.52%
[5]
  inhibition in vivo at 2.4 mg/kg: 90.1%
[6]
  Activity: 4.7%
[7]
  Drug uptake: Not Active
[8]
  Activity: Active
[9]
  Activity: Active
[10]
  Activity: Non-Toxic
[11]
  Activity: 100%
[12]
  Activity: 10.1%
[13]
  Activity: Non-Toxic
[14]
  inhibition in vivo at 2.4 mg/kg: 98.4%
[15]
  Activity: inactive
[16]
  Activity: Toxic
[17]
  Activity: Non-Toxic
[18]
  Activity: 29%
[19]
  Kd: 363 nM
[20]
  Activity: 1.5%
[21]
  Drug uptake: Not Active
[22]
  Activity: Non-Toxic
[23]
  Activity: Active
[24]
  Drug uptake: Active
[25]
  IC50: 380 nM
[26]
  Drug uptake: Active
[27]
  Activity: Active
[28]
  Activity: Active
[29]
  Drug uptake: Active
[30]
  Activity: 7.48%
[31]
  Activity: Dose-Dependent Effect
  IC50: 1690 nM
[32]
  Activity: Non-Toxic
[33]
  Activity: Non-Toxic

## CCN(CC)c1ccc2c(-c3ccccc3C(=O)NCC(=O)NCC(=O)N[C@@H](CC(C)C)C(=O)N[C@@H](CCCCN)C(=O)N[C@H](CC(C)C)C(=O)N[C@@H](CC(C)C)C(=O)N[C@@H](CCCCN)C(=O)N[C@H](CCCCN)C(=O)N[C@@H](CC(C)C)C(=O)N[C@H](CC(C)C)C(=O)N[C@H](CCCCN)C(=O)N[C@@H](CCCCN)C(=O)N[C@@H](CC(C)C)C(=O)N[C@@H](CC(C)C)C(=O)N[C@H](CCCCN)C(=O)N[C@@H](CC(C)C)C(=O)N[C@@H](CC(C)C)C(N)=O)c3ccc(=[N+](CC)CC)cc-3oc2c1
[5]
  inhibition in vivo at 2.4 mg/kg: 47.3%
[6]
  Activity: 14.5%
[10]
  Activity: Non-Toxic
[13]
  Activity: Non-Toxic
[34]
  Activity: Toxic
[16]
  Activity: Toxic
[17]
  Activity: Non-Toxic
[22]
  Activity: Non-Toxic
[23]
  Activity: Active
[32]
  Activity: Non-Toxic

## C=Cc1c(C)c2cc3nc(c4c5[nH]c(cc6nc(cc1[nH]2)C(C)=C6CC)c(C)c5C(=O)C4)[C@@H](CCC(=O)O)[C@@H]3C [PYROPHEOPHORBIDE A]
[2]
  Drug uptake: Active
[11]
  Activity: 90%
[19]
  Kd: 89.3 nM
[21]
  Drug uptake: Active
[25]
  IC50: 130 nM
